Measurements: ChEMBL document CHEMBL2440005, “Discovery and structure-activity relationships of 6-(benzoylamino)benzoxaboroles as orally active anti-inflammatory agents” (Bioorg Med Chem Lett, 2013)
The source made the active and inactive calls. The calls are words filed in the database; no cut-off is given here.

How the values were obtained:
PBMC [1] = assay: Antiinflammatory activity in human PBMC assessed as inhibition of LPS-induced IL-1beta release incubated for 15 mins prior to LPS-challenge measured after 24 hrs by HTRF assay; format: functional, cell-based
PBMC [2] = assay: Antiinflammatory activity in human PBMC assessed as inhibition of LPS-induced IL-6 release incubated for 15 mins prior to LPS-challenge measured after 24 hrs by HTRF assay; format: functional, cell-based
PBMC [3] = assay: Antiinflammatory activity in human PBMC assessed as inhibition of LPS-induced TNFalpha release incubated for 15 mins prior to LPS-challenge measured after 24 hrs by HTRF assay; format: functional, cell-based
Mus musculus [4] = assay: Antiinflammatory activity in collagen-induced arthritis mouse model at 3 mg/kg, po qd after 20 days; format: functional, organism-based; set-up: dose 3 mg/kg
Mus musculus [5] = assay: Toxicity in mouse assessed as change in body weight at 3 mg/kg, po qd after 20 days relative to untreated control; format: organism-based; set-up: dose 3 mg/kg, route oral; conditions: in vivo, 480 h

Structure (SMILES) | IC50 (PBMC [1]) | IC50 (PBMC [2]) | IC50 (PBMC [3]) | inhibition (Mus musculus [4]) | Activity (Mus musculus [5])
O=C(Nc1ccc2c(c1)B(O)OC2)c1ccccc1C(F)(F)F | 2.1 µM | 4.4 µM | 7.2 µM | – | –
O=C(Nc1ccc2c(c1)B(O)OC2)c1cc(C(F)(F)F)ccc1C(F)(F)F | 2 µM | 3 µM | 6.3 µM | – | –
O=S(=O)(Nc1ccc2c(c1)B(O)OC2)c1ccccc1C(F)(F)F | > 10 µM | > 10 µM | > 10 µM | – | –
O=C(Nc1ccc2c(c1)B(O)OC2)c1ccccc1F | > 10 µM | > 10 µM | > 100 µM | – | –
O=C(Nc1ccc2c(c1)B(O)OC2)Nc1ccccc1C(F)(F)F | > 10 µM | > 10 µM | > 10 µM | – | –
O=C(Nc1ccc2c(c1)B(O)OC2)c1ccc(C(F)(F)F)cc1 | > 100 µM | > 100 µM | > 100 µM | – | –
O=C(Nc1ccc2c(c1)B(O)OC2)c1c(F)cccc1Cl | 3.1 µM | 4.9 µM | 15 µM | – | –
O=C(Nc1ccc2c(c1)B(O)OC2)c1ccccc1OC(F)(F)F | > 100 µM | > 100 µM | > 100 µM | – | –
Cc1ccccc1C(=O)Nc1ccc2c(c1)B(O)OC2 | > 100 µM | > 100 µM | > 100 µM | – | –
OB1OCc2ccc(NCc3ccccc3C(F)(F)F)cc21 | > 10 µM | > 10 µM | > 10 µM | – | –
O=C(Nc1ccc2c(c1)B(O)OC2)c1ccccc1-c1ccccc1 | > 100 µM | > 100 µM | > 100 µM | – | –
O=C(Nc1ccc2c(c1)B(O)OC2)c1cccc(C(F)(F)F)c1F | > 100 µM | > 100 µM | 99 µM | – | –
O=C(Nc1ccc2c(c1)B(O)OC2)c1ccccc1 | > 100 µM | > 100 µM | > 100 µM | – | –
O=C(Nc1ccc2c(c1)B(O)OC2)c1cc(F)ccc1C(F)(F)F | 11 µM | 8.2 µM | 28 µM | – | –
O=C(Nc1ccc2c(c1)B(O)OC2)c1ccc(C(F)(F)F)cc1C(F)(F)F | 5.3 µM | 8.3 µM | 10 µM | – | –
O=C(Nc1ccc2c(c1)B(O)OC2)c1c(F)cccc1C(F)(F)F | 0.18 µM | 0.37 µM | 1.2 µM | – | –
O=C(Nc1ccc2c(c1)B(O)OC2)c1ccc(F)cc1C(F)(F)F | 3.2 µM | 5.6 µM | 13 µM | – | –
O=C(Nc1ccc2c(c1)B(O)OC2)c1ccccc1Cl | > 100 µM | > 100 µM | > 100 µM | – | –
O=C(Nc1ccc2c(c1)B(O)OC2)c1cccc(Cl)c1F | > 100 µM | > 100 µM | > 100 µM | – | –
COc1ccccc1C(=O)Nc1ccc2c(c1)B(O)OC2 | > 100 µM | > 100 µM | 36 µM | – | –
O=C(Nc1ccc2c(c1)B(O)OC2)c1ccc(C(F)(F)F)cc1F | > 100 µM | > 100 µM | > 100 µM | – | –
O=C(Nc1ccc2c(c1)B(O)OC2)c1cc(C(F)(F)F)ccc1F | > 100 µM | > 100 µM | > 100 µM | – | –
C[C@]12C=CC(=O)C=C1CC[C@@H]1[C@@H]2[C@@H](O)C[C@@]2(C)[C@H]1CC[C@]2(O)C(=O)CO [PREDNISOLONE] | – | – | – | Active | Non-toxic
O=C(Nc1ccc2c(c1)B(O)OC2)c1cccc(C(F)(F)F)c1 | > 10 µM | > 10 µM | > 10 µM | – | –
